pIC50: −log10 of the molar value. Active and inactive are the calls of the source. No cut-off for these calls is given here.
Experiments:
[1] = target: ALK tyrosine kinase receptor (Homo sapiens) (UniProt Q9UM73); assay: Inhibition of DNA-tagged ALK (unknown origin) expressed in HEK293 cells at 10 uM after 1 hr by real-time fluorescent quantitative PCR analysis; type: cell-based
[2] = test system: HT-29; assay: cells; conditions: Homo sapiens, HT-29, 72 h
Description: Antiproliferative activity against human HT-29 cells after 72 hrs by MTS assay

[3] = test system: HEK293; assay: Antiproliferative activity against human HEK293 cells after 72 hrs by MTS assay; type: functional; conditions: HEK293, 72 h
[4] = test system: HT-29; assay: Cell cycle arrest in human HT-29 cells assessed as accumulation at G1 phase at 10 uM after 48 hrs by propidium iodide/RNase staining-based flow cytometric analysis (reference value: 62.1%); type: functional
[5] = target: MAP kinase-activated protein kinase 2 (Homo sapiens) (UniProt P49137); assay: Inhibition of DNA-tagged MAPKAPK2 (unknown origin) expressed in HEK293 cells at 10 uM after 1 hr by real-time fluorescent quantitative PCR analysis; type: cell-based
MAP kinase-activated protein kinase 2 (Homo sapiens), sequence (P49137 whole entry, looked up): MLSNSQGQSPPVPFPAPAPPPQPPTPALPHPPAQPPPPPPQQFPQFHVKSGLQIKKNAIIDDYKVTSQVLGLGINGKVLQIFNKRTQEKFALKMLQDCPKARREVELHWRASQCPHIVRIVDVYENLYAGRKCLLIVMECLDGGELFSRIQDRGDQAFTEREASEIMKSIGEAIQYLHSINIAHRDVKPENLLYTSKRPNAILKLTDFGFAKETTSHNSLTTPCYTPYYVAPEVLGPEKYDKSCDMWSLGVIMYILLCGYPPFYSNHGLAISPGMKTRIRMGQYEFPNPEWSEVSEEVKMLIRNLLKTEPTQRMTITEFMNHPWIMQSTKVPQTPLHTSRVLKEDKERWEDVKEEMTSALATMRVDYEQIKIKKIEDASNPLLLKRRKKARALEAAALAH

[6] = target: Cyclin-dependent kinase 2 (Homo sapiens) (UniProt P24941); assay: Inhibition of DNA-tagged CDK2 (unknown origin) expressed in HEK293 cells at 10 uM after 1 hr by real-time fluorescent quantitative PCR analysis; type: cell-based
[7] = target: T1, Serine/threonine-protein kinase Chk1 (Homo sapiens) (UniProt O14757); assay: Inhibition of CHK1 (unknown origin) at 10 uM using Cdc25 peptide as substrate preincubated for 30 mins followed by substrate addition and measured after 60 mins by ADP-Glo kinase assay
T1 sequence (whole entry): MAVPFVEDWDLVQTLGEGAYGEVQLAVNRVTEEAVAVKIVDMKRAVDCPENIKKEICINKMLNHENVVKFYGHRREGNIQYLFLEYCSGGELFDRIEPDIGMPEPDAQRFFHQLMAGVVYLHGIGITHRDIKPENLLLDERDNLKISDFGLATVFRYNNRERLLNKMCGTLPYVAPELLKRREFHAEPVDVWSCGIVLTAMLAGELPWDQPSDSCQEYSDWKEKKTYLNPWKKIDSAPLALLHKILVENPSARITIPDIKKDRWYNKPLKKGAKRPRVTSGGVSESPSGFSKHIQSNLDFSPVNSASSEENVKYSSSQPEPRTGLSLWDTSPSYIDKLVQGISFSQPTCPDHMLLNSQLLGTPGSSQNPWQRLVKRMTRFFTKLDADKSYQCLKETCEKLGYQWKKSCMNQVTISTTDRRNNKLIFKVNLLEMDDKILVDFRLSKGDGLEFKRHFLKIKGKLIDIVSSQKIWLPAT

[8] = target: T1, Serine/threonine-protein kinase Chk1 (Homo sapiens); assay: Inhibition of DNA-tagged CHK1 (unknown origin) expressed in HEK293 cells at 10 uM after 1 hr by real-time fluorescent quantitative PCR analysis; type: cell-based
[9] = test system: HT-29; assay: Potentiation of gemcitabine-induced cell cycle arrest in human HT-29 cells assessed as accumulation at G1 phase at 10 uM after 48 hrs by propidium iodide/RNase staining-based flow cytometric analysis (reference value: 62.1%); type: functional
[10] = target: RAC-alpha serine/threonine-protein kinase (Homo sapiens) (UniProt P31749); assay: Inhibition of DNA-tagged AKT1 (unknown origin) expressed in HEK293 cells at 10 uM after 1 hr by real-time fluorescent quantitative PCR analysis; type: cell-based
RAC-alpha serine/threonine-protein kinase (Homo sapiens), sequence (P31749 whole entry): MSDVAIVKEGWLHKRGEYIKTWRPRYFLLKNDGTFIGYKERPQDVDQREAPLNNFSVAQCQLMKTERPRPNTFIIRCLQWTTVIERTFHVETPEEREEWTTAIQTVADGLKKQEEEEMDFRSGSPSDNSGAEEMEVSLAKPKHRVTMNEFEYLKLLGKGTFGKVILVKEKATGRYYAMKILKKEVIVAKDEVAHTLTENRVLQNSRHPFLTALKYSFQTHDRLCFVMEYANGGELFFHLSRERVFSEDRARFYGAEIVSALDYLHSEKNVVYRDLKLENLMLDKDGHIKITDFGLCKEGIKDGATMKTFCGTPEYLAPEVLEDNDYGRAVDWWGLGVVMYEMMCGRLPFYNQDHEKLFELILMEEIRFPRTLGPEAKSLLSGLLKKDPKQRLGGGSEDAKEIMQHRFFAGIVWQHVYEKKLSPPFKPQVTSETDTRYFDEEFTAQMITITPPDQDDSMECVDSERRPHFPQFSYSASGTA

[11] = test system: HT-29; assay: Cell cycle arrest in human HT-29 cells assessed as accumulation at S phase at 10 uM after 48 hrs by propidium iodide/RNase staining-based flow cytometric analysis (reference value: 30.9%); type: functional
[12] = target: Epidermal growth factor receptor (Homo sapiens) (UniProt P00533); assay: Inhibition of DNA-tagged EGFR (unknown origin) expressed in HEK293 cells at 10 uM after 1 hr by real-time fluorescent quantitative PCR analysis; type: cell-based
Epidermal growth factor receptor (Homo sapiens), sequence (P00533 whole entry): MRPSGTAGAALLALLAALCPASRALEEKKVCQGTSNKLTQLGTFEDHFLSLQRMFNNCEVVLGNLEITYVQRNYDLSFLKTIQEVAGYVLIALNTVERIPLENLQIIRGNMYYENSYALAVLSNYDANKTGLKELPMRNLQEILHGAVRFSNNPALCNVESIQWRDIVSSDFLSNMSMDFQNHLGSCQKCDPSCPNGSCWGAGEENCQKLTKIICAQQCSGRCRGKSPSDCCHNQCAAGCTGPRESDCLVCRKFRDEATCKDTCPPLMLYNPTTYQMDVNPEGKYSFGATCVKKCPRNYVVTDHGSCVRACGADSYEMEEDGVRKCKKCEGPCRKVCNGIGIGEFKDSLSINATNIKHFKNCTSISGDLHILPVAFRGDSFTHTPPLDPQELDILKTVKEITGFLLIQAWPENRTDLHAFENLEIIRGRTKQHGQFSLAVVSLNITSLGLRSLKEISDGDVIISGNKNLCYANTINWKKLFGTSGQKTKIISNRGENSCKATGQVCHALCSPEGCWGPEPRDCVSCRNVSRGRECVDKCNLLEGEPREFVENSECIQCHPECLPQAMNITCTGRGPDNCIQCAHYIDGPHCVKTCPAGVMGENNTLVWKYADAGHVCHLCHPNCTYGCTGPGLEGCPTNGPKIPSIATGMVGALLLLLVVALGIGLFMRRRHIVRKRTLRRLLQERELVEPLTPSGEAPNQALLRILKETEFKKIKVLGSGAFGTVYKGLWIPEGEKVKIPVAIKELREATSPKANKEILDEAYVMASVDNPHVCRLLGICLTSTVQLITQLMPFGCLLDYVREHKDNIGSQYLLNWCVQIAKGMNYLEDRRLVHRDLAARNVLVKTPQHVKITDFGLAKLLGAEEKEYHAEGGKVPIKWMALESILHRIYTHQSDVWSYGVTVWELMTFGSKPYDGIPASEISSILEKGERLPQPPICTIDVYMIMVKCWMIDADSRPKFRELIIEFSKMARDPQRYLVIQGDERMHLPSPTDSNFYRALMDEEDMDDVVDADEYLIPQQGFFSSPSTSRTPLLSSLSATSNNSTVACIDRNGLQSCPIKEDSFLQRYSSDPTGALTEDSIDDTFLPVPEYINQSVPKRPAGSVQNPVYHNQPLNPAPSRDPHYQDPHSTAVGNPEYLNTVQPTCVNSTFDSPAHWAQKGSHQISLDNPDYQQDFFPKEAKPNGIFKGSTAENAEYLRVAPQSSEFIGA

[13] = target: T2, Serine/threonine-protein kinase 3 (Homo sapiens) (UniProt Q13188); assay: Inhibition of DNA-tagged STK3 (unknown origin) expressed in HEK293 cells at 10 uM after 1 hr by real-time fluorescent quantitative PCR analysis; type: cell-based
T2 sequence (whole entry): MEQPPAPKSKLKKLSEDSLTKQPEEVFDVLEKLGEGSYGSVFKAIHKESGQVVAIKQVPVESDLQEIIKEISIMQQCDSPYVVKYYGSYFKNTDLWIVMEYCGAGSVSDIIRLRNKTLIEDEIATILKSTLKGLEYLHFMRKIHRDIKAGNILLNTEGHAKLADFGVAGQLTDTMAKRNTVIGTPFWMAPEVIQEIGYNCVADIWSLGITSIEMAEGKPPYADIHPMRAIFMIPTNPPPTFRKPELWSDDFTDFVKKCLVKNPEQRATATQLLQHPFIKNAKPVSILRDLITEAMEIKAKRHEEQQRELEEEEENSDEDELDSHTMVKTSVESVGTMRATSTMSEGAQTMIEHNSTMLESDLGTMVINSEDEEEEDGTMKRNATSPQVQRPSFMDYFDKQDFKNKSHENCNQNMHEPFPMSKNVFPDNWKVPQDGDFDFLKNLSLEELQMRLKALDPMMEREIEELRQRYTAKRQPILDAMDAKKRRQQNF

[14] = test system: HT-29; assay: Potentiation of gemcitabine-induced cell cycle arrest in human HT-29 cells assessed as accumulation at S phase at 10 uM after 48 hrs by propidium iodide/RNase staining-based flow cytometric analysis (reference value: 62.1%); type: functional
[15] = test system: HT-29; assay: Potentiation of gemcitabine-induced cell cycle arrest in human HT-29 cells assessed as accumulation at G2 phase at 10 uM after 48 hrs by propidium iodide/RNase staining-based flow cytometric analysis (reference value: 62.1%); type: functional
[16] = test system: HT-29; assay: Inhibition of colony formation in human HT-29 cells at <10 uM after 2 weeks by crystal violet staining-based assay; type: functional, cell-based
[17] = target: cAMP-dependent protein kinase catalytic subunit alpha (Homo sapiens) (UniProt P17612); assay: Inhibition of DNA-tagged PKACalpha (unknown origin) expressed in HEK293 cells at 10 uM after 1 hr by real-time fluorescent quantitative PCR analysis; type: cell-based
[18] = target: T3, Serine/threonine-protein kinase Chk1 (Homo sapiens, UniProt O14757); assay: Inhibition of CHK1 (unknown origin) using Cdc25 peptide as substrate preincubated for 30 mins followed by substrate addition and measured after 60 mins by ADP-Glo kinase assay
T3 sequence (O14757 whole entry): T1 sequence (whole entry)

ALK tyrosine kinase receptor (Homo sapiens), sequence (Q9UM73 19-1620 limits assumed): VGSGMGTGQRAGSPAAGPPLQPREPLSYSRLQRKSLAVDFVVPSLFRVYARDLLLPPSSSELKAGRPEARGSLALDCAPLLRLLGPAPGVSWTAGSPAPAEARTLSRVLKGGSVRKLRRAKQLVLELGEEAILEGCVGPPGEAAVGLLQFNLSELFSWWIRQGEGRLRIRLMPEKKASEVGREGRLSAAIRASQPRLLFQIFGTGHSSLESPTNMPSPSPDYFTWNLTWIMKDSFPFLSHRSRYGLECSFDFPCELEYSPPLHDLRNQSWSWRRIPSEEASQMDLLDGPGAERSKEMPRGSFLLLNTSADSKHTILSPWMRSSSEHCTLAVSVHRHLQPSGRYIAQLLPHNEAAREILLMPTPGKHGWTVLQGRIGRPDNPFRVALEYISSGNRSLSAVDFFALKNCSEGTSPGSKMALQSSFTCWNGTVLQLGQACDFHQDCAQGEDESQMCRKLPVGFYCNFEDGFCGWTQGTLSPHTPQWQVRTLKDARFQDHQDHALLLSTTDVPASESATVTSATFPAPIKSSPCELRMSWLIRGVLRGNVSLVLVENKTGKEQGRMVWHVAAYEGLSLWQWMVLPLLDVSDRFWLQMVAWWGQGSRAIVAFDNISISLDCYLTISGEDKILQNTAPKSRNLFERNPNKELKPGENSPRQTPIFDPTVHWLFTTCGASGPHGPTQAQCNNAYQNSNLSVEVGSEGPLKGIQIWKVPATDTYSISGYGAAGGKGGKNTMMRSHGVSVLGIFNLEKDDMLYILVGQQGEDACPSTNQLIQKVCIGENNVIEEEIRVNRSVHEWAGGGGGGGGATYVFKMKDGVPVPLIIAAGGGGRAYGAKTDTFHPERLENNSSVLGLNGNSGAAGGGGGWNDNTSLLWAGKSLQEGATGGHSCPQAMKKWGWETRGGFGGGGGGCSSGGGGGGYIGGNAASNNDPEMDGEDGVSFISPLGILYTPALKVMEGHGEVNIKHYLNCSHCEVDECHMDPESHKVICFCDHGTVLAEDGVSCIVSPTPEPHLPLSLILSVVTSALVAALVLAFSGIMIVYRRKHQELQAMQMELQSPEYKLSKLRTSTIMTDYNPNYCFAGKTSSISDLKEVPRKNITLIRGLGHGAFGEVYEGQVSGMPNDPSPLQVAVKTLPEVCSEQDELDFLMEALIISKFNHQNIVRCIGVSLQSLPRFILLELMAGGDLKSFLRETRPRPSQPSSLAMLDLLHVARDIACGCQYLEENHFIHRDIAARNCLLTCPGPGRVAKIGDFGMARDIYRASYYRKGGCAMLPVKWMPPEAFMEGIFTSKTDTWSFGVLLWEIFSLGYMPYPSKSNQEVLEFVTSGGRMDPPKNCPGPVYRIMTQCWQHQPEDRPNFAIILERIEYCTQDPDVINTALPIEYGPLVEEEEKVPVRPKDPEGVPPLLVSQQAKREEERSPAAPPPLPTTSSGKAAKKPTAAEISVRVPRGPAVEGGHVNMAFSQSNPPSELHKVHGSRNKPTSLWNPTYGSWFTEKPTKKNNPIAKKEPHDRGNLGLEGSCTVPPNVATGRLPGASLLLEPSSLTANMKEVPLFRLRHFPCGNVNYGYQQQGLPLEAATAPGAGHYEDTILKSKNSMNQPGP

For `Fc1ccc(Nc2nc(N3CCOCC3)c3nc[nH]c3n2)cc1`, which inhibition [1] is on record?
Its inhibition is 1%.

What about the GI50 [2] of the same compound?
Its GI50 is > 100 µM.

And the GI50 [3]?
The GI50 was > 100 µM.

What about the Activity [4] of the same compound?
The Activity was 60%.

What about the inhibition [5] of the same compound?
Its inhibition is 18%.

And the inhibition [6]?
The inhibition was 73%.

And the inhibition [7]?
The inhibition was 89.9%.

What about the inhibition [8] of the same compound?
Its inhibition is 89.9%.

What about the Activity [9] of the same compound?
The Activity was 13.8%.

And the inhibition [10]?
The inhibition was 0%.

What about the Activity [11] of the same compound?
Its Activity is 29.5%.

What about the inhibition [12] of the same compound?
Its inhibition is 0%.

What about the inhibition [13] of the same compound?
The inhibition was 44%.

And the Activity [14]?
Its Activity is 61%.

And the Activity [15]?
Its Activity is 25.2%.

And the inhibition [16]?
Its inhibition is “inactive”.

And the inhibition [17]?
The inhibition was 0%.

And the pIC50 [18]?
Its pIC50 is 6.16.
